Assays:
[1] = system: differentiated L6-myotubes; test: cAMP production relative to isoprenaline (Biological example 2 of WO 2019/053427); format: cell-based; conditions: 0.25 h, compound at 10 μM, activity relative to isoproterenol at 10 μM
Text: For example, the level of cAMP production induced by a given compound can be determined by reference to the amount induced by a defined concentration of that compound relative to that induced by the same concentration of a reference compound, such as isoprenaline, using techniques known to those skilled in the art (e.g. following the protocol as described in the biological examples provided in WO 2019/053427, i.e. in cells, such as differentiated L6-myotubes, having been stimulated with isoprenaline or the compound with a final concentration of 1×10^−5 M, for 15 min in stimulation buffer, such as HBSS supplemented with 1% BSA, 5 mM HEPES and 1 mM IBMX, at pH 7.4).
(§1) Compounds described in publications referenced and incorporated herein were screened in accordance with the procedures outlined in Biological example 1 and Biological example 2 of WO 2019/053427.

[2] = system: differentiated L6-myotubes; test: Glucose uptake screen (Biological example 1 of WO 2019/053427); format: cell-based; conditions: compound at 10 μM, activity relative to isoproterenol at 10 μM, read-out: Biological example 1 of WO 2019/053427 (GU)
Description: as §1
L6-myoblasts were grown in Dulbecco's Modified Eagle's Medium (DMEM) containing 1 g/L glucose supplemented with 10% fetal bovine serum (FBS), 2 mM L-glutamine, 50 U/mL penicillin, […] streptomycin and 10 mM HEPES. Cells were plated at 1x 10^5 cells per mL in 24-well plates. After reaching 90% confluence the cells were grown in medium containing 2% FBS for 7 days where upon cells differentiated into myotubes. The differentiated L6-myotubes were serum-starved overnight in medium containing 0.5% fatty-acid free BSA and stimulated with Compound A at a final concentration of 1×10^−5 M in the presence of the selective β2-adrenergic receptor antagonist ICI-118551. After 1 h 40 min the cells were washed with warm, glucose free medium twice and another portion of agonist was added to the glucose free medium. After another 20 min of incubation the cells were exposed to 50 nM ^3H-2-deoxyglucose for 10 min before washed in ice cold glucose free medium three times and lysed in 400 µl/well 0.2 M NaOH for 1 h at 60° C. The cell lysate was mixed with 4 ml scintillation buffer (Emulsifier Safe, Perkin Elmer) and the radioactivity was detected in a P-counter (Tri-Carb 4810TR, Perkin Elmer).

| SMILES | Emax at 10 µM [1] | Emax at 10 µM [2] |
| --- | --- | --- |
| C[C@H]1CC[C@@H]([C@H](O)c2ccccc2)N1 (racemic) [Compound 38, Racemic mixture of (R)-[(2S,5S)-5-methyl-2-pyrrolidinyl]phenylmeth-anol and (S)-[(2R,5R)-5-methyl-2-pyrrolidinyl]phenylmeth-anol] | < 25% | 25 to 50% |
| C[C@H]1CC[C@@H]([C@@H](O)c2ccccc2)N1 (racemic) [Compound 39, Racemic mixture of (R)-[(2R,5R)-5-methyl-2-pyrrolidinyl]phenylmeth-anol and (S)-[(2S,5S)-5-methyl-2-pyrrolidinyl]phenylmeth-anol] | < 25% | 50 to 75% |
| C[C@H]1CC[C@@H]([C@H](O)c2cccc(O)c2)N1 (racemic) [Compound 40, Racemic mixture of m-{(R)-[(2S,5S)-5-methyl-2-pyrrolidinyl]hydroxymeth-yl}phenol and m-{(S)-[(2R,5R)-5-methyl-2-pyrrolidinyl]hydroxymeth-yl}phenol] | < 25% | 50 to 75% |
| C[C@H]1CC[C@@H]([C@@H](O)c2cccc(O)c2)N1 (racemic) [Compound 41, Racemic mixture of m-{(R)-[(2R,5R)-5-methyl-2-pyrrolidinyl]hydroxymeth-yl}phenol and m-{(S)-[(2S,5S)-5-methyl-2-pyrrolidinyl]hydroxymeth-yl}phenol] | < 25% | > 75% |
| CCCCNCC(O)c1ccc(O)cc1 (stereo not shown) [Compound 1, 2-(butylamino)-1-(p-hydroxyphenyl)-1-ethanol] | < 25% | > 75% |
| CCCCNCC(O)c1cccc(Cl)c1 (stereo not shown) [Compound 2, 2-(butylamino)-1-(m-chlorophenyl)-1-ethanol] | < 25% | 25 to 50% |
| Oc1ccc(C(O)CNCC2CC2)cc1 (stereo not shown) [Compound 3, p-{2-[(cyclopropylmethyl)ami-no]-1-hydroxyethyl}phenol] | < 25% | 50 to 75% |
| CC(C)(C)NCC(O)c1ccc(O)cc1 (stereo not shown) [Compound 4, 2-(tert-butylamino)-1-(p-hydroxyphenyl)-1-ethanol] | 25 to 50% | > 75% |
| CCC(C)NCC(O)c1ccc(O)cc1 (stereo not shown) [Compound 5, 2-(sec-butylamino)-1-(p-hydroxyphenyl)-1-ethanol] | < 25% | 50 to 75% |
| Oc1ccc(C(O)CNCC2CCCCC2)cc1 (stereo not shown) [Compound 6, 2-[(cyclohexylmethyl)ami-no]-1-(p-hydroxyphenyl)-1-ethanol] | < 25% | > 75% |
| OC(CNCC1CCCCC1)c1ccccc1 (stereo not shown) [Compound 7, 2-[(cyclohexylmethyl)ami-no]-1-phenyl-1-ethanol] | < 25% | 25 to 50% |
| CCCC(C)NCC(O)c1ccc(O)cc1 (stereo not shown) [Compound 8, 1-(p-hydroxyphenyl)-2-(1-methylbutylamino)-1-ethanol] | 25 to 50% | 50 to 75% |
| CCCCNC[C@H](O)c1ccc(O)cc1 [Compound 9, (R)-2-(butylamino)-1-(p-hydroxyphenyl)-1-ethanol] | < 25% | > 75% |
| Oc1ccc(C(O)CNC2CCCC2)cc1 (stereo not shown) [Compound 10, p-[2-(cyclopentylamino)-1-hydroxyethyl]phenol] | < 25% | 50 to 75% |
| Oc1ccc(C(O)CNC23CC4CC(CC(C4)C2)C3)cc1 (stereo not shown) [Compound 11, p-[2-(1-adamantanylamino)-1-hydroxyethyl]phenol] | < 25% | 25 to 50% |
| CCCCNC(C)C(O)c1ccc(O)cc1 (stereo not shown) [Compound 12, 2-(butylamino)-1-(p-hydroxyphenyl)-1-propanol] | < 25% | 50 to 75% |
| CCCC(C)NC(C)C(O)c1ccc(O)cc1 (stereo not shown) [Compound 13, 1-(p-hydroxyphenyl)-2-(1-methylbutylamino)-1-propanol] | < 25% | 50 to 75% |
| CCCC(C)NCC(O)c1cccc(O)c1 (stereo not shown) [Compound 14, 1-(m-hydroxyphenyl)-2-(1-methylbutylamino)-1-ethanol] | < 25% | > 75% |
| CCCCNCC(O)c1cccc(O)c1 (stereo not shown) [Compound 15, 2-(butylamino)-1-(m-hydroxyphenyl)-1-ethanol] | < 25% | 50 to 75% |
| Oc1ccc(C(O)CNCCC2CCCCC2)cc1 (stereo not shown) [Compound 16, 2-(2-cyclohexylethylamino)-1-(p-hydroxyphenyl)-1-ethanol] | < 25% | 25 to 50% |

| SMILES | Emax at 10 µM [1] | Emax at 10 µM [2] |
| --- | --- | --- |
| CCCCCCNCC(O)c1ccc(O)cc1 (stereo not shown) [Compound 17, 2-(hexylamino)-1-(p-hydroxyphenyl)-1-ethanol] | < 25% | 25 to 50% |
| CCCCCCCCNCC(O)c1ccc(O)cc1 (stereo not shown) [Compound 18, 1-(p-hydroxyphenyl)-2-(octylamino)-1-ethanol] | < 25% | 25 to 50% |
| CCCC(C)NCC(O)c1ccc(O)c(Cl)c1 (stereo not shown) [Compound 19, 1-(3-chloro-4-hydroxyphenyl)-2-(1-methylbutylamino)-1-ethanol] | < 25% | 25 to 50% |
| CCCCNCC(O)c1ccc(O)c(Cl)c1 (stereo not shown) [Compound 20, 2-(butylamino)-1-(3-chloro-4-hydroxyphenyl)-1-ethanol] | < 25% | 25 to 50% |
| Oc1ccc(C(O)CNCCCC2CCCCC2)cc1 (stereo not shown) [Compound 21, 2-(3-cyclohexylpropylamino)-1-(p-hydroxyphenyl)-1-ethanol] | < 25% | > 75% |
| CCCC(C)NCC(O)c1cc(Cl)c(N)c(Cl)c1 (stereo not shown) [Compound 22, 1-(4-amino-3,5-dichlorophenyl)-2-(1-methylbutylamino)-1-ethanol] | 50 to 75% | > 75% |
| CCCCNCC(O)c1cc(Cl)c(O)c(Cl)c1 (stereo not shown) [Compound 23, 2-(butylamino)-1-(3,5-dichloro-4-hydroxyphenyl)-1-ethanol] | < 25% | < 25% |
| Oc1ccc(C(O)CNCCC2CC2)cc1 (stereo not shown) [Compound 24, p-[2-(2-cyclopropylethylamino)-1-hydroxyethyl]phenol] | < 25% | 50 to 75% |
| CCCC(C)NCC(O)c1cc(Cl)c(O)c(Cl)c1 (stereo not shown) [Compound 25, 1-(3,5-dichloro-4-hydroxyphenyl)-2-(1-methylbutylamino)-1-ethanol] | < 25% | < 25% |
| CCCCNCC(O)c1cc(O)cc(O)c1 (stereo not shown) [Compound 26, 5-[2-(butylamino)-1-hydroxyethyl]resorcinol] | < 25% | 50 to 75% |
| CCC[C@@H](C)NC[C@H](O)c1ccc(O)cc1 [Compound 27, (R)-2-[(R)-1-methylbutylamino]-1-(p-hydroxyphenyl)-1-ethanol] | 25 to 50% | > 75% |
| CCC[C@@H](C)NC[C@H](O)c1cccc(O)c1 [Compound 28, (R)-2-[(R)-1-methylbutylamino]-1-(m-hydroxyphenyl)-1-ethanol] | 50 to 75% | > 75% |
| CCCCNCC(O)c1cc(Cl)c(N)c(Cl)c1 (stereo not shown) [Compound 29, 1-(4-amino-3,5-dichlorophenyl)-2-(butylamino)-1-ethanol] | 25 to 50% | > 75% |
| Oc1ccc(C(O)CNCCCC2CC2)cc1 (stereo not shown) [Compound 30, 2-(3-cyclopropylpropylamino)-1-(p-hydroxyphenyl)-1-ethanol] | < 25% | > 75% |
| Oc1ccc(C(O)CNCCCC(F)(F)F)cc1 (stereo not shown) [Compound 31, 1-(p-hydroxyphenyl)-2-(4,4,4-trifluorobutylamino)-1-ethanol] | – | 50 to 75% |
| CCCCNCC(O)c1cc(Cl)c(N)c(C(F)(F)F)c1 (stereo not shown) [Compound 32, 1-[4-amino-3-chloro-5-(trifluoromethyl)phenyl]-2-(butylamino)-1-ethanol] | 25 to 50% | > 75% |
| CCCC(C)NCC(O)c1cc(Cl)c(N)c(C(F)(F)F)c1 (stereo not shown) [Compound 33, 1-[4-amino-3-chloro-5-(trifluoromethyl)phenyl]-2-(1-methylbutylamino)-1-ethanol] | > 75% | 50 to 75% |
| CCCCNCC(O)c1ccc(Cl)c(O)c1 (stereo not shown) [Compound 34, 2-(butylamino)-1-(4-chloro-3-hydroxyphenyl)-1-ethanol] | < 25% | > 75% |
| CCCC(C)NCC(O)c1ccc(Cl)c(O)c1 (stereo not shown) [Compound 35, 1-(4-chloro-3-hydroxyphenyl)-2-(1-methylbutylamino)-1-ethanol] | < 25% | > 75% |
| CCCCNCC(O)c1ccc(Cl)c(N)c1 (stereo not shown) [Compound 36, 1-(3-amino-4-chlorophenyl)-2-(butylamino)-1-ethanol] | < 25% | 25 to 50% |
